Measurements published in the supplement of paper PMC10307832.

Key:
Assay in all cases: relative viability (nuclei count vs DMSO), 5 days (fraction); higher = more cells survive
[1] = compound: CC(C)(C)c1cc(NC(=O)Nc2ccc(-c3cn4c(n3)sc3cc(OCCN5CCOCC5)ccc34)cc2)no1 [Quizartinib] + COc1cccc2cc(-c3nc([C@H]4CC[C@H](C(=O)O)CC4)n4ncnc(N)c34)[nH]c12 [OSI-027] (partner 0.5 µM)
Method in brief: (§1)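 Values are medians from duplicate plates. Each reflects relative viability, defined as the nuclei count of treated wells over that of vehicle wells. Lung cancer cell lines in 1536-well plates were pin-tool dosed one day after seeding with one drug alone or with a fixed anchor-drug dose plus five library-drug doses (not always all listed) in √10 steps, then fixed, stained and imaged at 4× after 5 days.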

[2] = compound: CC(C)(C)c1cc(NC(=O)Nc2ccc(-c3cn4c(n3)sc3cc(OCCN5CCOCC5)ccc34)cc2)no1 [Quizartinib] + CS(=O)(=O)N1CCN(Cc2cc3nc(-c4cccc5[nH]ncc45)nc(N4CCOCC4)c3s2)CC1 [Pictilisib] (partner 1 µM)
Method in brief: as §1

[3] = compound: CC(C)(C)c1cc(NC(=O)Nc2ccc(-c3cn4c(n3)sc3cc(OCCN5CCOCC5)ccc34)cc2)no1 [Quizartinib] + C[C@]1(O)C[C@@H](c2nc(-c3ccc4ccc(-c5ccccc5)nc4c3)c3c(N)nccn32)C1 [Linsitinib] (partner 1 µM)
Method in brief: as §1

[4] = compound: CC(C)(C)c1cc(NC(=O)Nc2ccc(-c3cn4c(n3)sc3cc(OCCN5CCOCC5)ccc34)cc2)no1 [Quizartinib] + Cc1cc(Nc2cc(N3CCN(C)CC3)nc(Sc3ccc(NC(=O)C4CC4)cc3)n2)n[nH]1 [Tozasertib] (partner 0.1 µM)
Method in brief: as §1

| Cell Line | relative viability ([1]; first compound 0.001 µM) | relative viability ([1]; first compound 0.003162 µM) | relative viability ([1]; first compound 0.01 µM) | relative viability ([1]; first compound 0.03162 µM) | relative viability ([1]; first compound 0.1 µM) | relative viability ([2]; first compound 0.001 µM) | relative viability ([2]; first compound 0.003162 µM) | relative viability ([2]; first compound 0.01 µM) | relative viability ([2]; first compound 0.03162 µM) | relative viability ([2]; first compound 0.1 µM) | relative viability ([3]; first compound 0.001 µM) | relative viability ([3]; first compound 0.003162 µM) | relative viability ([3]; first compound 0.01 µM) | relative viability ([3]; first compound 0.03162 µM) | relative viability ([3]; first compound 0.1 µM) | relative viability ([4]; first compound 0.001 µM) | relative viability ([4]; first compound 0.003162 µM) | relative viability ([4]; first compound 0.01 µM) | relative viability ([4]; first compound 0.03162 µM) | relative viability ([4]; first compound 0.1 µM) |
| --- | --- | --- | --- | --- | --- | --- | --- | --- | --- | --- | --- | --- | --- | --- | --- | --- | --- | --- | --- | --- |
| HCC-78 | 0.398 | 0.375 | 0.357 | 0.325 | 0.377 | 0.21 | 0.185 | 0.206 | 0.0784 | 0.216 | 0.471 | 0.4 | 0.486 | 0.451 | 0.514 | 0.453 | 0.325 | 0.365 | 0.368 | 0.384 |
| HCC-366 | 0.705 | 0.866 | 0.796 | 0.831 | 0.747 | – | 0.138 | 0.103 | 0.137 | 0.138 | 0.501 | 0.695 | 0.656 | 0.615 | 0.554 | 0.11 | 0.0914 | 0.0628 | 0.0575 | 0.0582 |
| HCC-827 | 0.749 | 0.77 | 0.945 | 0.798 | 0.79 | 0.93 | 1.01 | 1.14 | 0.983 | 0.908 | 0.99 | 0.924 | 1.05 | 0.962 | 0.994 | 0.356 | 0.516 | 0.458 | 0.405 | 0.411 |
| HOP-62 | 0.75 | 0.769 | 1.03 | 0.87 | 0.847 | 0.377 | 0.7 | 0.692 | 0.831 | 0.835 | 1.02 | 0.933 | 0.822 | 0.913 | 1.07 | 0.358 | 0.363 | 0.416 | 0.352 | 0.33 |
| IA-LM | – | – | – | – | – | 0.356 | 0.299 | 0.397 | 0.231 | 0.342 | 0.518 | 0.657 | 0.652 | 0.724 | 0.679 | – | – | – | – | – |
| LC-2-ad | 0.842 | 0.866 | 0.757 | – | 0.626 | 0.398 | 0.516 | 0.351 | 0.323 | 0.276 | 0.77 | 0.782 | 0.909 | 0.76 | 0.605 | 0.373 | 0.436 | 0.451 | – | 0.451 |
| LCLC-97TM1 | 0.567 | 0.466 | 0.538 | 0.588 | 0.563 | – | 0.144 | 0.223 | 0.148 | 0.218 | – | 0.148 | 0.185 | 0.174 | 0.21 | 0.183 | 0.218 | 0.172 | 0.248 | 0.207 |
| LCLC-103H | 0.432 | 0.503 | 0.422 | 0.475 | 0.487 | 0.535 | 0.733 | 0.591 | 0.547 | 0.546 | 0.946 | 1.05 | 1.06 | 1.2 | 0.882 | 0.391 | 0.47 | 0.441 | 0.491 | 0.522 |
| LK-2 | 0.182 | 0.199 | 0.185 | 0.198 | 0.182 | 0.594 | 0.474 | 0.826 | 0.526 | 0.55 | 0.479 | 0.617 | 0.621 | 0.523 | 0.521 | 0.133 | – | 0.145 | 0.17 | 0.142 |
| LOU-NH91 | 0.673 | 0.749 | 0.712 | 0.742 | 0.767 | 0.431 | 0.559 | 0.521 | 0.465 | 0.545 | 0.899 | 0.954 | 0.996 | 0.825 | 1.11 | 0.472 | 0.693 | 0.462 | 0.649 | 0.668 |
| LU99A | 0.282 | 0.3 | 0.282 | 0.319 | 0.327 | 0.312 | 0.317 | 0.327 | 0.309 | 0.291 | 0.509 | 0.504 | 0.628 | 0.497 | 0.417 | 0.288 | 0.274 | 0.262 | 0.259 | 0.272 |
| NCI-H522 | 0.649 | 0.764 | 0.694 | 0.702 | 0.762 | – | – | – | – | – | – | – | – | – | – | 0.571 | 0.585 | 0.585 | 0.559 | 0.569 |
| NCI-H1299 | – | – | – | – | – | 0.835 | 0.735 | 0.797 | 0.726 | 0.881 | 0.952 | 0.95 | 0.987 | 1.02 | 1.01 | – | – | – | – | – |
| NCI-H1563 | 0.734 | 0.701 | 0.78 | 0.696 | 0.667 | 0.719 | 0.68 | 0.649 | – | 0.626 | 1.01 | 1.04 | 1.17 | – | 0.972 | – | – | – | – | – |
| NCI-H1623 | 0.457 | 0.419 | 0.41 | 0.383 | 0.412 | – | – | – | – | – | – | – | – | – | – | 0.392 | 0.469 | 0.449 | 0.441 | 0.511 |
| NCI-H1650 | 0.414 | 0.738 | 0.598 | – | 0.494 | 0.268 | 0.584 | 0.566 | – | 0.547 | – | – | – | – | – | 0.42 | 0.366 | 0.369 | – | 0.238 |
| NCI-H1703 | – | – | – | – | – | 0.3 | 0.183 | 0.216 | 0.154 | 0.24 | 0.832 | 0.456 | 0.165 | 0.162 | 0.231 | – | – | – | – | – |
| NCI-H1792 | – | 0.73 | 0.707 | 0.589 | 0.733 | 0.317 | 0.247 | 0.281 | 0.235 | 0.385 | 0.334 | 0.496 | 0.602 | 0.466 | 0.587 | – | – | – | – | – |
| NCI-H2170 | 0.695 | 0.659 | 0.825 | 0.774 | 0.816 | 0.388 | 0.327 | 0.308 | 0.42 | 0.321 | – | – | – | – | – | 0.665 | 0.654 | 0.853 | 0.749 | 0.804 |
| NCI-H2342 | 0.664 | 0.592 | 0.603 | 0.68 | 0.621 | – | – | – | – | – | – | – | – | – | – | 0.625 | 0.582 | 0.575 | 0.498 | 0.457 |
| SW 900 | 0.533 | 0.508 | – | 0.512 | 0.569 | – | – | – | – | – | – | – | – | – | – | 0.57 | 0.506 | – | 0.344 | 0.39 |
